{"source": "patent US9579344B2", "about": "“Use of nitrite salts in treating tissue damage” (Board of Supervisors of Louisiana State University and …, priority 2009, dated 2017)", "key": {"[1]": {"system": "ischemic tissue gene expression", "description": "(§1) Hind limb ischemia was induced by ligating the left common femoral artery proximal to origin of profunda femoris artery according to Senthilkumar, A., Smith, R. D., Khitha, J., Arora, N., Veerareddy, S., Langston, W., Chidlow, 1H., Jr., Barlow, S. c., Teng, x., Patel, R. P., et al. 2007. Arterioscler Thromb Vasc Biol 27: 1947-1954. Mice were anesthetized with intraperitoneal injection of ketamine (100 mglkg) and xylazine (8 mglkg); surgery was performed under aseptic conditions. The common femoral vein and femoral nerve were dissected away from the artery. Two ligatures were placed in the common femoral artery proximal to the profunda femoris artery and then transected between the two ligations. The incision was then closed and the ligation was immediately verified by laser Doppler measurement of tissue blood flow.\nRNA integrity was checked using the Agilent 2100 Bioanalyzer (Agilent Technologies, Palo Alto, Calif.). […] Double stranded cDNA was synthesized from 5 ug total RNA using a Superscript cDNA synthesis Kit (Invitrogen, Carlsbad, Calif.) and purified using the Gene Chip Sample Cleanup Module (Affymetrix, Santa Vlara, Calif.). After biotin-labeling, the cDNA were fragmented at 94° C. and hybridized to the GeneChip® Mouse Genome 430 2.0 Array (Affymetrix), which contains 39,000 fully annotated transcripts of the mouse genome. After washing and staining, the arrays were scanned using GeneChip Scanner 3000 (Affymetrix) and hybridization efficiency determined by housekeeping control and spike control probe sets.\nArray data were globally scaled to a target intensity value of 500 to compare individual array experiments. To determine differentially expressed genes between PBS and nitrite treatment, data were log transformed and uploaded into Genesifter program (www.genesifter.net). Identification of significant changes in gene expression were determined using a pair-wise comparison of PBS versus nitrite therapy gene array data at each individual time point with the following criteria: a minimal 2-fold difference in expression with no maximal threshold limit, a hybridization quality cutoff of 1, and an unpaired student t-test between treatment groups followed by Benjamini and Hochberg post test to limit false discovery rates.\nThe resulting output of network analysis was broken down according to the genetic composition of networks, the biological function of the networks, the number of interrelated network relationships, as well as statistical analysis of individual networks.\nInduction of chronic hind limb ischemia was performed according to the method in Example 1. […] Nitrite doses were given once in the morning (8 am) and a second in the afternoon (5 pm) with muscle tissue harvested on the morning of the 4th and 8th days (to give an entire 3 and 7 day period for study). Four muscle specimens from individual mice were harvested per treatment cohort per time point for a total of 16 individual specimens for gene array analysis. Harvested tissue was immediately frozen in liquid nitrogen for subsequent total RNA isolation. Laser doppler blood flow measurements were taken from non-ischemic and ischemic hind limbs prior to tissue collection to determine the amount of ischemic tissue perfusion using a Vasamedics Laserflo BPM2 deep tissue penetrating doppler device. Percent restoration of blood flow was determined by dividing the ischemic hind limb blood flow by the non-ischemic hind limb blood flow and multiplying by 100. Statistical analysis of changes in tissue blood flow between treatment groups at specific time points were performed with an unpaired students t-test using Prism software (Graphpad)."}, "[2]": {"system": "coronary artery endothelial cells, umbilical vein endothelial cells", "description": "(§2) A contained hypoxia tissue culture system was used allowing the long term culturing of cells in hypoxia (24 hrs). A fluorescent plate reader in hypoxic chamber measured NO formation using the fluorescent dye DAF-FM.\n(§3) The effect of specific inhibitors of NO production, carboxy PTIO (2-(4-Carboxyphenyl)-4,4,5,5-tetramethylimidazoline-1-oxyl-3-oxide), allopurinol and L-NAME, was also analyzed. […] Results for iliac vein smooth muscle cells are shown in FIGS. 7A, 7B and 8; results for aortic smooth muscle cells are shown in FIGS. 9A, 9B and 10; results for coronary artery cells are shown in FIGS. 11A, 11B and 12, results for umbillical vein cells are shown in FIGS. 13A, 13B and 14."}, "[3]": {"system": "iliac vein smooth muscle cells, aortic smooth muscle cells", "description": "as §2, §3"}, "cultured cells": {"system": "cultured cells", "conditions": "hypoxic and normoxic conditions, 100 nM or 1 uM sodium nitrite (FIG. 16)", "description": "FIG. 16 depicts the chemiluminescent detection of nitrite/nitric oxide during hypoxia.\nas §3"}, "[4]": {"system": "ischemic hind limb of B6.BKS-Lepr^db/db diabetic mice", "conditions": "aged diabetic mice, 165 ug/kg", "description": "(§4) B6.BKS-Lepr^db/db diabetic mice were purchased from Jackson's laboratory and housed in the animal center of LSU Health Sciences Center for 6 months. Surgical hind limb ischemia was created in 9 month-old male (Db/Db) type-2 diabetic mice. The mice were anesthetized by isoflurane inhalation and the left groin area was shaved and naired. The left external iliac artery and vein, left femoral artery and vein, left saphenous artery and vein and deep femoral and circumflex arteries and veins were ligated, cut, and excised to obtain a mouse model of critical hind limb ischemia. […] All treatments were performed in a double-blinded manner.\nLaser Doppler blood flows were measured using a Vasamedics Laserflo BPM2 device in the gastrocnemius pre-ligation, post-ligation and on days 1, 3, 5, 7, 9, 11, 13, 15, 17, 19 and 21 post-ligation. Blood vessels visible through the skin were avoided to ensure readings indicative of muscle blood flow. Measurements were recorded as milliliter of blood flow per 100 grams of tissue per minute. Percent blood flows were calculated as: a/b××100 where a=ischemic limb average flow and b=non-ischemic limb average flow."}, "[5]": {"conditions": "aged diabetic mice", "description": "as §4\nBlood glucose measurements were taken using Ascensia Elite blood glucose test strips and a Bayer Glucometer Elite.\nPlasma total cholesterol and LDL levels were determined using a Siemens Vista Clinical Chemistry analyzer."}, "[6]": {"system": "gastrocnemius muscles of aged diabetic mice", "conditions": "non-ischemic tissues of aged diabetic mice (FIG. 21B)", "description": "as §4\nThe gastrocnemius muscles from ischemic and non-ischemic hind limbs were removed, dissected, and embedded in OCT freezing medium. Frozen tissue blocks were cut into 5 μm sections and slides prepared. A primary antibody against PECAM-1 was added at a 1:200 dilution along with anti-Ki67 (1:350 dilutions) and incubated at 37° C. for 1 hour. Slides were then washed and a Cy3 conjugated secondary antibody was added at a 1:250 dilution along with anti-rabbit Ig antibody at a 1:150 dilution and incubated at room temperature for 1 hour. Slides were once again washed and mounted with cover slips using Vectashield DAPI. […] Cellular proliferation was determined as the ratio between regions positive for Ki67 and DAPI positive area."}, "[7]": {"system": "ischemic hindlimbs of aged diabetic mice", "conditions": "PBS controls showed extensive necrosis and digit loss", "description": "as §4"}, "[8]": {"system": "ischemic hindlimbs of C57Bl/6J mice", "conditions": "fluorescence angiograms, 4 seconds blush time, vs PBS", "description": "as §1"}, "C2C12 myoblasts": {"system": "C2C12 myoblasts", "description": "as §2"}, "C2C12 myoblast cells": {"system": "C2C12 myoblast cells", "conditions": "hypoxic conditions"}, "[9]": {"conditions": "cardiovascular development and function, skeletal muscle development, tissue development"}, "[10]": {"conditions": "cellular assembly and organization, carbohydrate metabolism, molecular transport"}, "[11]": {"conditions": "day 3, 165 μg/kg twice daily i.p., vs PBS"}, "[12]": {"conditions": "day 3, Ingenuity network analysis"}, "[13]": {"conditions": "day 7, 165 μg/kg twice daily i.p., vs PBS"}, "[14]": {"conditions": "inflammatory response, neurological disease, cellular development"}}, "note": "Like-named read-outs stand apart in the source and are kept apart here.", "data": [{"compound": "O=NO", "note": "[sodium nitrite]", "values": [{"measurement": "genes enhanced, FIG. 2 network", "setting": "[1]; antigen presentation, cell mediated immunity, humoral mediated immunity", "value": "calsequestrin 2, GST alpha 5, and solute carrier family member 25"}, {"measurement": "genes inhibited, FIG. 6 network", "setting": "[1]; cancer, nervous system development and function, tissue morphology", "value": "glycerol-3-phosphate dehydrogenase and protein phosphatase 2, reg subunit B"}, {"measurement": "genes enhanced, FIG. 3 network", "setting": "[1]; [9]", "value": "CXCR6, VE-cadherin, DIX domain containing 1, myosin, heavy chain 2, myosin, light chain 2, myosin, light chain 4, myosin, light chain 9, P2rY2, paired like homeodomain 2, troponin C, type 1, troponin T, type 2 and vitronectin"}, {"measurement": "genes inhibited, FIG. 3 network", "setting": "[1]; [9]", "value": "Rho Gtpase activating protein 17, CCR5, CXCL12, CXCL7, formin binding protein 1, G protein coupled receptor 65, 5-HT receptor 2B, serine/threonine kinase 17b and thrombospondin 2"}, {"measurement": "genes enhanced, FIG. 1 network", "setting": "[1]; cardiovascular system development and function, tissue morphology, carbohydrate metabolism", "value": "flavin containing monoxygenase 5, smoothelin like 1, mysoin heavy chain 7, CUB zona pellucida like domains 1 and small proline rich protein 1A"}, {"measurement": "genes enhanced, FIG. 4 network", "setting": "[1]; [10]", "value": "cyclin M4, EH domain containing 2, myosin heavy chain 7, myosin light chain 9 regulatory, popeye domain containing 2 and TEA domain family member 4"}, {"measurement": "genes inhibited, FIG. 4 network", "setting": "[1]; [10]", "value": "adipose differentiated-related protein, chitinase 3-like 3, kinesin family member 20B, leukocyte specific transcript 1, RNA binding motif protein 47 and sorting nexin 6"}, {"measurement": "genes down-regulated", "setting": "[1]; [11]", "value": 346, "unit": "genes"}, {"measurement": "genes up-regulated", "setting": "[1]; [11]", "value": 111, "unit": "genes"}, {"measurement": "expression of genes associated with innate and acquired immune responses (FIG. 1)", "setting": "[1]; [12]", "value": "inhibited"}, {"measurement": "expression of genes involved in antigen presentation, cell mediated immunity, and humoral mediated immunity (FIG. 2)", "setting": "[1]; [12]", "value": "altered"}, {"measurement": "expression of genes involved in cardiovascular development and function, skeletal muscle development, and tissue development (FIG. 3)", "setting": "[1]; [12]", "value": "altered"}, {"measurement": "expression of genes involved in cardiovascular system development and function, tissue morphology, and carbohydrate metabolism (FIG. 1)", "setting": "[1]; [12]", "value": "enhanced"}, {"measurement": "expression of genes involved in cellular assembly and organization, carbohydrate metabolism and molecular transport (FIG. 4)", "setting": "[1]; [12]", "value": "altered"}, {"measurement": "expression of genes involved in inflammatory response, neurological disease and cellular development (FIG. 5)", "setting": "[1]; [12]", "value": "altered"}, {"measurement": "distinct gene expression profiles significantly altered", "setting": "[1]; day 3 of ischemia, 165 μg/kg twice daily i.p., vs PBS, minimal 2-fold difference", "value": 457}, {"measurement": "expression of genes associated with tissue remodeling", "setting": "[1]; day 7", "value": "enhanced"}, {"measurement": "genes down-regulated", "setting": "[1]; [13]", "value": 55, "unit": "genes"}, {"measurement": "genes up-regulated", "setting": "[1]; [13]", "value": 219, "unit": "genes"}, {"measurement": "expression of genes involved in cancer, nervous system development and function and tissue morphology (FIG. 6)", "setting": "[1]; day 7, Ingenuity network analysis", "value": "altered"}, {"measurement": "genes with differentially impacted expression profile", "setting": "[1]; day 7 of ischemia, 165 μg/kg twice daily i.p., vs PBS", "value": 274, "unit": "genes"}, {"measurement": "genes enhanced, FIG. 5 network", "setting": "[1]; [14]", "value": "glycogen syntase 1 (muscle), kin of IRRE like 3, solute carrier family 16, member 3, solute carrier family 8, member 3 and uridine-cytidine kinase 2"}, {"measurement": "genes inhibited, FIG. 5 network", "setting": "[1]; [14]", "value": "C-type lectin domain family 5, A, FERM domain containing 4B, receptor (G protein coupled) activity modifying protein 2, signal-regulatory protein beta 1, solute carrier family 15, member 3 and zinc finger E-box binding homeobox 2"}, {"measurement": "myogenin mRNA levels", "setting": "[1]; ischemic mouse hindlimb gastrocnemius muscle, nitrite-treated animals (FIG. 25A)", "value": "significantly increased"}, {"measurement": "nitrite reduction to NO, concentration dependence", "setting": "[2]", "value": "reduced nitrite to NO at lower concentrations of exogenous nitrite"}, {"measurement": "nitrite reduction to NO", "setting": "[2]; hypoxic conditions (1% oxygen)", "value": "reduced nitrite to NO"}, {"measurement": "DAF fluorescence (NO formation)", "setting": "[3]; higher concentrations of exogenous nitrite required", "value": "large increases in DAF fluorescence"}, {"measurement": "nitrite reduction to NO", "setting": "[3]; hypoxic conditions (1% oxygen)", "value": "reduced nitrite to NO"}, {"measurement": "intracellular NO levels", "setting": "cultured cells", "value": "lower concentrations, but not higher concentrations, of sodium nitrite resulted in a significant increase"}, {"measurement": "blood flow in ischemic hind limbs compared with PBS-treated control animals", "setting": "[4]; all time points analyzed", "value": "significantly greater"}, {"measurement": "blood flow in ischemic hind limbs relative to preligation", "setting": "[4]; by the end of the study", "value": "approached preligation levels"}, {"measurement": "ischemic hind-limb blood flow", "setting": "[4]; treatment delayed to five days after surgery", "value": "restored"}, {"measurement": "body weight", "setting": "[5]; delayed chronic treatment (FIG. 18A)", "value": "did not alter"}, {"measurement": "blood glucose levels", "setting": "[5]; delayed chronic treatment (FIG. 18B)", "value": "did not alter"}, {"measurement": "serum cholesterol", "setting": "[5]; delayed chronic treatment (FIG. 19A)", "value": "significantly decreased"}, {"measurement": "serum LDL", "setting": "[5]; delayed chronic treatment (FIG. 19B)", "value": "significantly decreased"}, {"measurement": "epithelial cell proliferation", "setting": "[6]", "value": "but not non-ischemic tissues"}, {"measurement": "digit loss", "setting": "[7]", "value": "no digit loss"}, {"measurement": "necrosis", "setting": "[7]", "value": "minimal necrosis"}, {"measurement": "arteriogenesis", "setting": "[8]", "value": "significantly increased"}, {"measurement": "levels of NO", "setting": "C2C12 myoblasts; 0.01 uM sodium nitrite, only in hypoxic conditions (FIG. 24B)", "value": "significantly increased"}, {"measurement": "NO levels", "setting": "C2C12 myoblasts; 100 uM sodium nitrite (FIG. 24A)", "value": "did not alter"}, {"measurement": "myogenin mRNA", "setting": "C2C12 myoblast cells; decreasing levels of sodium nitrite, inversely correlated with nitrite concentration", "value": "dose-dependent increase"}, {"measurement": "levels of myogenin mRNA", "setting": "C2C12 myoblast cells; lowest dose 0.01 uM sodium nitrite", "value": "highest"}]}]}
